Ratio data for 3 molecules are collected here from ChEMBL document CHEMBL1131859, “Conformationally restricted paclitaxel analogues: macrocyclic mimics of the "hydrophobic collapse" conformation” (1999).

Assay [1] in a line: Inhibitory activity against microtubule assembly stimulated by paclitaxel (1 uM) at a concentration of 20 uM of the compound; No inhibition. Type of assay: functional.
In assay [2] the test system is B16. The assay is described as follows: Tested for cytotoxicity against B16 melanoma cells expressed as the ED50 to that of ED50 of paclitaxel; In active. Type of assay: functional, cell-based. The settings on record: Mus musculus.
Assay [3] can be described thus: Tested for activity using microtubule assembly assay expressed as the ED50 to that of ED50 of paclitaxel; In active. Type of assay: functional.
Assay [4] deals with B16. Description: Tested for cytotoxicity against B16 melanoma cells expressed as the ED50 to that of ED50 of paclitaxel. Type of assay: functional, Mus musculus.
Assay [5] is described as follows: Tested for activity using microtubule assembly assay expressed as the ED50 to that of ED50 of paclitaxel. Type of assay: functional.

Active and inactive are the calls of the source. The rule behind the calls is not given here.

`CC(=O)O[C@H]1C(=O)[C@@]2(C)[C@H]([C@@H]3OC(=O)c4cccc(c4)/C=C\c4ccccc4[C@H](NC(=O)c4ccccc4)[C@@H](O)C(=O)OC4C[C@]3(O)C(C)(C)C1=C4C)[C@]1(OC(C)=O)CO[C@@H]1C[C@@H]2O`: the Ratio entry in assay [1] is “inactive”.
As to `CC(=O)O[C@H]1C(=O)[C@@]2(C)[C@H]([C@H](OC(=O)c3ccccc3)[C@]3(O)CC(OC(=O)/C=C(\NC(=O)c4ccccc4)c4cccc(I)c4)C(C)=C1C3(C)C)[C@]1(OC(C)=O)CO[C@@H]1C[C@@H]2O` (stereo not given in full), the Ratio entry (in the assay on B16 [2]; in assay [3]) was “inactive” each time.
In the case of `CC(=O)O[C@H]1C(=O)[C@@]2(C)[C@H]([C@H](OC(=O)c3ccccc3)[C@]3(O)CC(OC(=O)[C@H](O[Si](C)(C)C(C)(C)C)[C@@H](NC(=O)c4ccccc4)c4cccc(I)c4)C(C)=C1C3(C)C)[C@]1(OC(C)=O)CO[C@@H]1C[C@@H]2O` (stereo not given in full), the Ratio was 27 with B16 [4] and 4.6 in assay [5].
